Assay: Observations of appearance, structure and phase separation (Centrifuge Test, standing)
Assay type: physicochemical
Settings: gel structure, phase separation

observations: did not form lamellar phase
Substance: non-ethoxylated sodium tridecyl sulfate [ST0S]
